Values joined by “and” are separate entries in the source; they are usually repeats but may differ in a detail not shown here. Equal values may be shown once.
Experiments:
Type in all cases: cell-based, Escherichia coli
EKO-35 araC::acrEF Pore = test: MIC susceptibility profiling, porinated efflux platform; settings: for Minimum inhibitory concentration, EKO-35 araC::acrEF Pore: Table 14A, porinated, technical duplicate
How it was run: (§1)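 E. coli strains carrying a genomically integrated constitutive fhuA ΔC/Δ4L pore were grown 18 h in LB at 37 °C, then diluted 1/2000 in MHB II from OD600 ~1.0. Compounds were tested in duplicate, 2-fold serial titration, for 18 h at 37 °C with shaking. MIC came from OD600 with the pre-incubation background subtracted.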

EKO-35 araC::macAB Pore = test: as above; settings: for Fold changes of MICs: EKO-35 araC::macAB Pore compared to EKO-35-Pore; for Minimum inhibitory concentration: EKO-35 araC::macAB Pore, technical duplicate
How it was run: as §1

EKO-35 araC::emrAB Pore = test: as above; settings: for Fold changes of MICs: EKO-35 araC::emrAB Pore compared to EKO-35-Pore; for Minimum inhibitory concentration: EKO-35 araC::emrAB Pore, technical duplicate
How it was run: as §1

EKO-35 araC::emrKY Pore = test: as above; settings: for Fold changes of MICs: EKO-35 araC::emrKY Pore compared to EKO-35-Pore; for Minimum inhibitory concentration: EKO-35 araC::emrKY Pore, technical duplicate
How it was run: as §1

EKO-35 araC::mexCD Pore = test: as above; settings: for Fold changes of MICs: EKO-35 araC::mexCD Pore compared to EKO-35-Pore; for Minimum inhibitory concentration: EKO-35 araC::mexCD Pore, technical duplicate
How it was run: as §1

[1] = system: EKO-35 araC::acrBD408A Pore; test: as above; settings: for Fold changes of MICs: EKO-35 araC::acrBD408A Pore compared to EKO-35-Pore; for Minimum inhibitory concentration: EKO-35 araC::acrBD408A Pore, technical duplicate
How it was run: as §1

EKO-35 araC::acrD Pore = test: as above; settings: for Fold changes of MICs: EKO-35 araC::acrD Pore compared to EKO-35-Pore; for Minimum inhibitory concentration, EKO-35 araC::acrD Pore: Table 14A, porinated, technical duplicate
How it was run: as §1

EKO-35-Pore = test: Checkerboard synergy (FICI), porinated strain; settings: EKO-35 Pore
Description: (§2) Synergy measurement using checkerboard analysis was performed in 96-well microtiter plates using the microdilution broth method, according to CLSI guidelines (Patel J. B., 2015). The cell inocula were prepared using the colony resuspension method. The minimum inhibitory concentrations (MICs) were defined as the lowest concentration that provided no growth, as determined by measurement of the OD600nm using a Synergy H1 microplate reader (BioTek). Susceptibility testing was performed in MHB II with a final volume of 100 μL. PAI3N (Bachem Americas) was solubilized in MHB II. […] Solvent controls were included in each plate.
(§3) The Fractional Inhibitory Concentration Index (FICI) was used to assess the synergy of PAI3N in combination with different antibiotics. The FICI represents the ΣFIC of each drug. The FICI for each drug was calculated using the following formula: FICI=FICA+FICB=(CA/MICA)+(CB/MICB). Where MICA and MICB are the MICs of drugs A (PAI3N/NMP) and B (antibiotic) alone, and CA and CB are the MICs of the drugs in combination. The effects of PAβN or NMP in combination with antibiotics were classified as: synergistic (FICI<0.5), additive (FICI>0.5-1.0), indifferent (FICI>1.0-2.0), and antagonistic (FICI>2.0). Fold increases in resistance provided by efflux pumps were calculated by dividing the MIC values of strains expressing efflux pumps by the MIC value of EKO-35.

[2] = system: EKO-35 porinated strain expressing acrB; test: Checkerboard synergy (FICI), porinated strain; settings: EKO-35 acrB Pore
Description: as §2, §3

[3] = system: EKO-35-Pore acrBD408A (functionally inactive AcrB variant); test: Checkerboard synergy (FICI), porinated strain; settings: EKO-35 acrBD408A Pore
Description: as §2, §3

Substance: benzalkonium chloride
- efflux pump-mediated resistance vs EKO-35-Pore (EKO-35 araC::acrEF Pore; AcrEF with the pore): impacted the ability of AcrEF to confer resistance
- Fold changes of MICs (EKO-35 araC::acrEF Pore; EKO-35 araC::acrEF Pore compared to EKO-35-Pore): 2 fold
- Minimum inhibitory concentration, EKO-35 araC::acrEF Pore (EKO-35 araC::acrEF Pore): 0.781 µg/mL
- Fold changes of MICs (EKO-35 araC::macAB Pore): 1 fold
- Minimum inhibitory concentration (EKO-35 araC::macAB Pore): 0.391 µg/mL
- Fold changes of MICs (EKO-35 araC::emrAB Pore): 1 fold
- Minimum inhibitory concentration (EKO-35 araC::emrAB Pore): 0.391 µg/mL
- Fold changes of MICs (EKO-35 araC::emrKY Pore): 1 fold
- Minimum inhibitory concentration (EKO-35 araC::emrKY Pore): 0.195 µg/mL
- Fold changes of MICs (EKO-35 araC::mexCD Pore): 1 fold
- Minimum inhibitory concentration (EKO-35 araC::mexCD Pore): 0.391 µg/mL
- Fold changes of MICs [1]: 1 fold
- Minimum inhibitory concentration [1]: 0.391 µg/mL
- Fold changes of MICs (EKO-35 araC::acrD Pore): 1 fold
- Minimum inhibitory concentration, EKO-35 araC::acrD Pore (EKO-35 araC::acrD Pore): 0.391 µg/mL

Substance: deoxycholate
- Minimum inhibitory concentration, EKO-35 araC::acrEF Pore (EKO-35 araC::acrEF Pore): 1500 µg/mL
- Fold changes of MICs (EKO-35 araC::macAB Pore): 1 fold
- Minimum inhibitory concentration (EKO-35 araC::macAB Pore): 187.5 µg/mL
- Fold changes of MICs (EKO-35 araC::emrAB Pore): 4 fold
- Minimum inhibitory concentration (EKO-35 araC::emrAB Pore): 750 µg/mL
- Fold changes of MICs (EKO-35 araC::emrKY Pore): 1 fold
- Minimum inhibitory concentration (EKO-35 araC::emrKY Pore): 187.5 µg/mL
- Fold changes of MICs (EKO-35 araC::mexCD Pore): 2 fold
- Minimum inhibitory concentration (EKO-35 araC::mexCD Pore): 375 µg/mL
- efflux pump-mediated resistance vs EKO-35-Pore (EKO-35 araC::mexCD Pore; MexCD, OM compromised): no longer associated MexCD with resistance
- Fold changes of MICs [1]: 1 fold
- Minimum inhibitory concentration [1]: 93.75 µg/mL
- Fold changes of MICs (EKO-35 araC::acrD Pore): 8 fold
- Minimum inhibitory concentration, EKO-35 araC::acrD Pore (EKO-35 araC::acrD Pore): 1500 µg/mL

Substance: phenylalanine-arginine-β-naphthylamide [PAβN]
- PABN MICa Alone (EKO-35-Pore; PAβN alone, one value per checkerboard, listed as PABN): 64 µg/mL and 32 µg/mL
- PABN MICa Combined (EKO-35-Pore; with Ciprofloxacin): 2 µg/mL
- PABN MICa Combined (EKO-35-Pore; with Erythromycin): 8 µg/mL
- PABN MICa Combined (EKO-35-Pore; with Fusidic Acid): 16 µg/mL
- PABN MICa Combined (EKO-35-Pore; with Linezolid): 32 µg/mL
- PABN MICa Combined (EKO-35-Pore; with Novobiocin): 16 µg/mL
- PABN MICa Combined (EKO-35-Pore; with Oxacillin): 32 µg/mL
- PABN MICa Combined ([2]; with Erythromycin): 16 µg/mL
- PABN MICa Combined ([2]; with Fusidic Acid): 32 µg/mL
- PABN MICa Combined ([2]; with Linezolid): 16 µg/mL
- PABN MICa Combined ([2]; with Novobiocin): 16 µg/mL
- PABN MICa Combined ([2]; with Oxacillin): 16 µg/mL
- PABN MICa Combined ([3]; with Ciprofloxacin): 8 µg/mL
- PABN MICa Combined ([3]; with Erythromycin): 16 µg/mL
- PABN MICa Combined ([3]; with Fusidic Acid): 8 µg/mL
- PABN MICa Combined ([3]; with Linezolid): 32 µg/mL
- PABN MICa Combined ([3]; with Novobiocin): 8 µg/mL
- PABN MICa Combined ([3]; with Oxacillin): 32 µg/mL

Reference: patent publication US20230407243A1, “GENETIC PLATFORM TO INVESTIGATE THE FUNCTIONS OF BACTERIAL DRUG EFFLUX PUMPS” (priority 2022, published 2023)
